Laboratory results as given in PMC11542830, “3-nitropyridine analogues as novel microtubule-targeting agents” (PLOS ONE, 2024).
Like-named read-outs stand apart in the source and are kept apart here.

Experiments:
UACC-257 = assay: NCI60 5-dose screen, UACC-257; type: cell-based; conditions: Homo sapiens, melanoma, Fig 1D, read-out: Log10 GI50 (UACC-257) (converted)
Protocol: (§1) The screening methodology used in the NCI60 Cell 5-Doses screen is described in detail at https://dtp.cancer.gov/discovery_development/nci-60/methodology.htm. Briefly, cells are seeded in 96 well plates at an appropriate density and incubated for 1 day. After 1 day, some of the plates are processed to determine a time zero density. To the remaining plates, compounds are added over a 5-log M concentration range (1 log dilutions from 10^-4M to 10^-8M). Plates are incubated for two additional days, then fixed and stained with sulforhodamine B. Growth inhibition is calculated relative to cells without drug treatment and the time zero control. The GI50 is the concentration of a compound that causes 50% growth inhibition, relative to the no drug control.

Pharmacokinetics in rats = type: in vivo, Sprague-Dawley rats; conditions: rat
Protocol: The pharmacokinetic profile of 4AZA2891 was investigated in male Sprague-Dawley rats after intravenous and oral administration of a dose of 2 mg/kg and 20 mg/kg, respectively. The rats were purchased from Charles River Laboratories (Belgium) and 3 rats were included in each dosing route. 4AZA2891 was formulated either as a solution at 1 mg/ml in glucose 5% with 2 equivalents of H3PO4 for the IV dosing or as a solution at 4 mg/ml in water with 2 equivalents of H3PO4 for the oral dosing. Both formulations were heated for 1 hour at 80°C in order to obtain a clear solution. Serial venous blood samples, taken by eye puncture under isoflurane inhalation anesthesia, were collected in heparinized tubes. The plasma fraction was immediately separated by centrifugation 2 min at 13,000 g and stored at -80°C until analysis. Plasma concentrations were measured using liquid chromatography/mass spectrometry/mass spectrometry (LC/MS/MS).
(§2) Every plasma and tissue sample was spiked with internal standard followed by the addition of 4 volumes of methanol. The samples were kept for 30 min on ice prior to centrifugation 10 min at 12,000 RPM in order to remove precipitated proteins. The supernatant was analyzed for the presence of 4AZA2891 using LC/MS/MS (Finnigan LCQ advantage Max (ion trap) mass spectrometer with Surveyor HPLC System (Thermo Finnigan)).
(§3) As standard for the bioanalysis, 4AZA2891 was diluted stepwise. Each dilution was added to blank control plasma or to blank control tissue homogenate additionally spiked with internal standard, giving rise to standard curves from 5 to 5,000 ng/ml. The lower limit of quantification was 5 to 10 ng/ml depending on the tissues.
(§4) Non-compartmental pharmacokinetic analysis was performed on the plasma concentration-time data. PK Solutions 2.0 software (Summit Research Services) was used to calculate the PK parameters.

OVCAR-4 = assay: NCI60 5-dose screen, OVCAR-4; type: cell-based; conditions: Homo sapiens, ovarian cancer, Fig 1D, read-out: Log10 GI50 (OVCAR-4) (converted)
Protocol: as §1

tubulin = assay: Fluorescence-based tubulin polymerization assay; type: biochemical; conditions: purified tubulin, fluorescent reporter, vs DMSO control
Protocol: Tubulin polymerization in vitro was analyzed using the fluorescence-based tubulin polymerization assay (Cytoskeleton, Inc.), according to the manufacturer’s guidelines. Fluorescence was read on a SaFire II microplate reader (Tecan).

OVCAR-5 = assay: NCI60 5-dose screen, OVCAR-5; type: cell-based; conditions: Homo sapiens, ovarian cancer, Fig 1D, read-out: Log10 GI50 (OVCAR-5) (converted)
Protocol: as §1

Myelotoxicity in mice = type: in vivo; conditions: Balb/c mice
Protocol: Female Balb/c mice from Janvier Labs, 8–10 weeks old, were injected IV daily for 6 days with 4AZA2891 at 15 mg/kg or with the vehicle (4 mice per treatment group). The compound was formulated at 0.75 mg/ml in glucose 5% with 2 equivalents H3PO4 as described above. Mice were daily weighted and assessed clinically. On day 7, mice were exsanguinated by retro-orbital bleeding under anesthesia with avertin (given intraperitoneally); blood was collected in EDTA tubes and was subjected to an automated blood count (Sysmex XE 2100 Hematology Analyser, Sysmex Europe GmbH). Femurs were fixed in formaldehyde, decalcified, and paraffin embedded. Sections (4.5 μm) were stained with hematoxylin/eosin (H&E) for histopathological analysis at Novaxia (France).

[1] = Pharmacokinetics and tissue distribution in mice; type: in vivo; conditions: CD1 mice, IV bolus 20 mg/kg
Protocol: Female CD1 mice were purchased from Harlan (Harlan Netherlands BV) and 7–8 weeks old mice were injected intravenously (IV) with 20 mg/kg 4AZA2891 formulated at 2 mg/ml as described above. […] The plasma, obtained after centrifugation of the heparinized blood for 2 min at 13,000 g, and the harvested tissues, after homogenization with Ultra-Turrax, were stored at-80°C until analysis by LC-MS/MS.
as §2, §3, §4

NCI/ADR-RES = assay: NCI60 5-dose screen, NCI/ADR-RES; type: cell-based; conditions: Homo sapiens, ovarian cancer, Fig 1D, read-out: Log10 GI50 (NCI/ADR-RES) (converted)
Protocol: as §1

MALME-3M = assay: NCI60 5-dose screen, MALME-3M; type: cell-based; conditions: Homo sapiens, melanoma, Fig 1D, read-out: Log10 GI50 (MALME-3M) (converted)
Protocol: as §1

HOP-92 = assay: NCI60 5-dose screen, HOP-92; type: cell-based; conditions: Homo sapiens, non-small cell lung cancer, Fig 1D, read-out: Log10 GI50 (HOP-92) (converted)
Protocol: as §1

[2] = 15 mg/kg IV once daily for 6 days, blood on day 7

Cc1cc(C)cc(Nc2ccc([N+](=O)[O-])c(NCCN3CCOCC3)n2)c1 [Compound 4AZA2891, 6-(3,5-dimethylanilino)-2-(2-morpholinoethylamino)-3-nitropyridine]
GI50 (UACC-257): > 100000 nM
AUC(0-t) (Pharmacokinetics in rats; male, Sprague-Dawley, plasma, IV 2 mg/kg, read-out: AUClast in plasma): 253 ng·h/mL
half-life (Pharmacokinetics in rats; male, Sprague-Dawley, plasma, IV 2 mg/kg, read-out: elimination half-life (converted)): 48 min
clearance (Pharmacokinetics in rats; male, Sprague-Dawley, plasma, IV 2 mg/kg, read-out: systemic clearance (converted)): 132 mL/min/kg
Vd (Pharmacokinetics in rats; male, Sprague-Dawley, plasma, IV 2 mg/kg, read-out: volume of distribution at steady state): 7.4 L/kg
time detected in the plasma (Pharmacokinetics in rats; IV 2 mg/kg, lower limit of quantification 10 ng/ml): up to 3 hours
oral bioavailability (Pharmacokinetics in rats; oral 20 mg/kg): not orally bioavailable
plasma levels after oral dose (Pharmacokinetics in rats; oral 20 mg/kg, all time points): below the limit of quantification
GI50 (OVCAR-4): < 10 nM
effect on tubulin polymerization in vitro (tubulin): dose-dependently inhibits tubulin polymerization
GI50 (OVCAR-5): 36.3 nM
Hb (Myelotoxicity in mice; [2]): 14.7 ± 2.2 g/dL
Platelets (Myelotoxicity in mice; [2]): 234 ± 84 10^9/l
RBC (Myelotoxicity in mice; [2]): 9.4 ± 1.6 10^12/l
WBC (Myelotoxicity in mice; [2]): 5.2 ± 2.6 10^9/l
histologic examination of the bone marrow (Myelotoxicity in mice; 15 mg/kg/d IV during 6 days): normal
tolerability (body weight change, anemia, leukocytopenia, thrombocytopenia) (Myelotoxicity in mice; 15 mg/kg/d IV during 6 days): well tolerated
tissue distribution [1]: distributes readily to all tissues analyzed including the brain
half-life ([1]; female, mouse, different tissues (homogenates), tissues, read-out: elimination half-lives in the different tissues): 18 to 48 min
AUC(0-t) ([1]; female, mouse, plasma, read-out: AUClast in plasma): 1290 ng·h/mL
Kp ([1]; female, mouse, brain, read-out: ratio of brain AUC over plasma AUC): 2.7
Kp ([1]; female, mouse, kidney, read-out: ratio of kidney AUC over plasma AUC): 2.6
half-life ([1]; female, mouse, plasma, read-out: elimination half-life (converted)): 42 min
clearance ([1]; female, mouse, plasma, read-out: systemic clearance (converted)): 257 mL/min/kg
Vd ([1]; female, mouse, plasma, read-out: volume of distribution at steady state): 5.7 L/kg
GI50 (NCI/ADR-RES): < 10 nM
GI50 (MALME-3M): 15800 nM
GI50 (HOP-92): < 10 nM
